# According to patent publication US8906852B2 (MethylGene Inc., priority 2010, dated 2014):
# Biological target: T1, VEGFR/KDR (Homo sapiens, UniProt P35968)
# T1 construct: made in house; host or cells: Sf9 cells (Spodoptera frugiperda), baculovirus
# Assay: VEGFR/KDR kinase inhibition, DELFIA assay
# Assay type: biochemical
# Conditions: ATP 0.6 uM (2x Km), enzyme 5 nM
# Summary of the method: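 DELFIA time-resolved fluorescence readout using Europium-tagged anti-phosphotyrosine antibody after EDTA stop. Kinase reaction on plate-bound poly(Glu4,Tyr) ran 10-30 min at 30° C with 5 nM enzyme and 0.6 uM ATP (2× Km), following 4 min on-ice pre-incubation with compound; IC50 over a concentration range.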
# T1 sequence (P35968 806-1356): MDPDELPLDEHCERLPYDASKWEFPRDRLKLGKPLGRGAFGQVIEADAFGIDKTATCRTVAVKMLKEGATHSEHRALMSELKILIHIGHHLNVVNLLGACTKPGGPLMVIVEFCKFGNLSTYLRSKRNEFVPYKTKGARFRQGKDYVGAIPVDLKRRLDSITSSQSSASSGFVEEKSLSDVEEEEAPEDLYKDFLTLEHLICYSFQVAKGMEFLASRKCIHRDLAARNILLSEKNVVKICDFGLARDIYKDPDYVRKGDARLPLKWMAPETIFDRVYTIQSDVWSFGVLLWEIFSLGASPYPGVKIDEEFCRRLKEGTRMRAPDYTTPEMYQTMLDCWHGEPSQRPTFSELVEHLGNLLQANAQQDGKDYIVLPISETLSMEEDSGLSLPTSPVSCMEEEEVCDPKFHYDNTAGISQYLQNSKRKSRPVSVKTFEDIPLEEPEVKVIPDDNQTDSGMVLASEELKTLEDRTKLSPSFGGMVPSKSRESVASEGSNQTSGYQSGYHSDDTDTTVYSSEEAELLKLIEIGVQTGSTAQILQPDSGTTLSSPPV
row,SMILES,IC50
1,O=C(Nc1ccc(Oc2ccnc3cc(-c4cn(CC(=O)N5CCOCC5)nn4)sc23)c(F)c1)NC1CC1 [Compound 368],< 50 nM
2,COC(=O)CCn1cc(-c2cc3nccc(Oc4ccc(NC(=O)NC5CC5)cc4F)c3s2)nn1 [Compound 369],< 50 nM
3,"O=C(Nc1ccc(Oc2ccnc3cc(-c4cn(CC(=O)N5CCCCC5)nn4)sc23)c(F)c1)NC1CC1 [Compound 372, 1-cyclopropyl-3-(3-fluoro-4-(2-(1-(2-oxo-2-(piperidin-1-yl)ethyl)-1H-1,2,3-triazol-4-yl)thieno[3,2-b]pyridin-7-yloxy)phenyl)urea]",< 50 nM
4,O=C(Nc1ccc(Oc2ccnc3cc(-c4cn(CC(=O)N5CCCC5)nn4)sc23)c(F)c1)NC1CC1 [Compound 373],< 50 nM
5,CCOC(=O)Cc1csc(NC(=O)Cn2cc(-c3cc4nccc(Oc5ccc(NC(=O)NC6CC6)cc5F)c4s3)nn2)n1 [Compound 375],< 50 nM
6,CN(C)[C@H]1CCN(C(=O)Cn2cc(-c3cc4nccc(Oc5ccc(NC(=O)NC6CC6)cc5F)c4s3)nn2)C1 [Compound 376],< 50 nM
7,O=C(Nc1ccc(Oc2ccnc3cc(-c4cn(CCC(=O)N5CCOCC5)nn4)sc23)c(F)c1)NC1CC1 [Compound 377],< 50 nM
8,CN1CCN(C(=O)CCn2cc(-c3cc4nccc(Oc5ccc(NC(=O)NC6CC6)cc5F)c4s3)nn2)CC1 [Compound 378],< 50 nM
9,O=C(Nc1ccc(Oc2ccnc3cc(-c4cn(CCC(=O)N5CCCCC5)nn4)sc23)c(F)c1)NC1CC1 [Compound 379],< 50 nM
10,O=C(Nc1ccc(Oc2ccnc3cc(-c4cn(CCC(=O)N5CCCC5)nn4)sc23)c(F)c1)NC1CC1 [Compound 380],< 50 nM
11,O=C(Cn1cc(-c2cc3nccc(Oc4ccc(NC(=O)NC5CC5)cc4F)c3s2)nn1)NCc1cccnc1 [Compound 381],< 50 nM
12,CC(C)(C)OC(=O)NC1CCN(C(=O)Cn2cc(-c3cc4nccc(Oc5ccc(NC(=O)NC6CC6)cc5F)c4s3)nn2)C1 (stereo not shown) [Compound 382],< 50 nM
13,O=C(Cn1cc(-c2cc3nccc(Oc4ccc(NC(=O)NC5CC5)cc4F)c3s2)nn1)NCc1ccccn1 [Compound 383],< 50 nM
14,CN(C)CCCn1cc(-c2cc3nccc(Oc4ccc(NC(=O)NC5CC5)cc4F)c3s2)nn1 [Compound 384],< 50 nM
15,CC(C)(C)OC(=O)NC1CCN(C(=O)Cn2cc(-c3cc4nccc(Oc5ccc(NC(=O)NC6CC6)cc5F)c4s3)nn2)CC1 [Compound 387],< 50 nM
16,CC(C)(C)OC(=O)N1CCN(C(=O)Cn2cc(-c3cc4nccc(Oc5ccc(NC(=O)NC6CC6)cc5F)c4s3)nn2)CC1 [Compound 388],< 50 nM
17,"O=C(Nc1ccc(Oc2ccnc3cc(-c4cn(CC(=O)N5CCNCC5)nn4)sc23)c(F)c1)NC1CC1 [Compound 389, 1-Cyclopropyl-3-(3-fluoro-4-(2-(1-(2-oxo-2-(piperazin-1-yl)ethyl)-1H-1,2,3-triazol-4-yl)thieno[3,2-b]pyridin-7-yloxy)phenyl)urea]",< 50 nM
18,CC(=O)OCC(=O)N1CCN(C(=O)Cn2cc(-c3cc4nccc(Oc5ccc(NC(=O)NC6CC6)cc5F)c4s3)nn2)CC1 [Compound 390],< 50 nM
19,O=C(Nc1ccc(Oc2ccnc3cc(-c4cn(CC(=O)N5CCN(C(=O)CO)CC5)nn4)sc23)c(F)c1)NC1CC1 [Compound 391],< 50 nM
20,CC(C)(C)OC(=O)NCC(=O)N1CCN(C(=O)Cn2cc(-c3cc4nccc(Oc5ccc(NC(=O)NC6CC6)cc5F)c4s3)nn2)CC1 [Compound 392],< 50 nM
21,CCNC(=O)N1CCN(C(=O)Cn2cc(-c3cc4nccc(Oc5ccc(NC(=O)NC6CC6)cc5F)c4s3)nn2)CC1 [Compound 394],< 50 nM
22,NC1CCN(C(=O)Cn2cc(-c3cc4nccc(Oc5ccc(NC(=O)NC6CC6)cc5F)c4s3)nn2)CC1 [Compound 395],< 50 nM
23,CN(C(=O)OC(C)(C)C)C1CCN(C(=O)c2ccc(-c3cc4nccc(Oc5ccc(NC(=O)NC6CC6)cc5F)c4s3)nc2)CC1 [Compound 397],< 50 nM
24,CCNC(=O)N(C)C1CCN(C(=O)c2ccc(-c3cc4nccc(Oc5ccc(NC(=O)NC6CC6)cc5F)c4s3)nc2)CC1 [Compound 406],< 50 nM

# More lines, now with the values ahead:
row,IC50,SMILES
1,< 50 nM,O=C(Nc1ccc(Oc2ccnc3cc(-c4cn(CCCN5CCOCC5)nn4)sc23)c(F)c1)NC1CC1 [Compound 385]
2,< 50 nM,O=C(Nc1ccc(Oc2ccnc3cc(-c4ccc(C(=O)N5CCN(CCOCCO)CC5)cn4)sc23)c(F)c1)NC1CC1 [Compound 396]
3,< 50 nM,CNC1CCN(C(=O)c2ccc(-c3cc4nccc(Oc5ccc(NC(=O)NC6CC6)cc5F)c4s3)nc2)CC1 [Compound 399]
4,< 50 nM,NC1CCN(C(=O)c2ccc(-c3cc4nccc(Oc5ccc(NC(=O)NC6CC6)cc5F)c4s3)nc2)CC1 [Compound 400]
5,< 50 nM,CNC1CCN(Cc2ccc(-c3cc4nccc(Oc5ccc(NC(=O)NC6CC6)cc5F)c4s3)nc2)CC1 [Compound 401]
6,< 50 nM,NC1CN(Cc2ccc(-c3cc4nccc(Oc5ccc(NC(=O)NC6CC6)cc5F)c4s3)nc2)C1 [Compound 402]
7,< 50 nM,"O=C(Nc1ccc(Oc2ccnc3cc(-c4ccc(COC5CNC5)cn4)sc23)c(F)c1)NC1CC1 [Compound 405, 1-(4-(2-(5-((Azetidin-3-yloxy)methyl)pyridin-2-yl)thieno[3,2-b]pyridin-7-yloxy)-3-fluorophenyl)-3-cyclopropylurea]"
8,< 50 nM,CCNC(=O)N(C)C1CCN(Cc2ccc(-c3cc4nccc(Oc5ccc(NC(=O)NC6CC6)cc5F)c4s3)nc2)CC1 [Compound 407]
9,< 50 nM,CCNC(=O)NC1CN(Cc2ccc(-c3cc4nccc(Oc5ccc(NC(=O)NC6CC6)cc5F)c4s3)nc2)C1 [Compound 408]
10,< 50 nM,CCNC(=O)N1CC(OCc2ccc(-c3cc4nccc(Oc5ccc(NC(=O)NC6CC6)cc5F)c4s3)nc2)C1 [Compound 409]
11,< 50 nM,CNC(=O)N(C)C1CCN(Cc2ccc(-c3cc4nccc(Oc5ccc(NC(=O)NC6CC6)cc5F)c4s3)nc2)CC1 [Compound 410]
12,< 50 nM,CC(=O)OCC(=O)N(C)C1CCN(Cc2ccc(-c3cc4nccc(Oc5ccc(NC(=O)NC6CC6)cc5F)c4s3)nc2)CC1 [Compound 411]
13,< 50 nM,C=CC(=O)N(C)C1CCN(Cc2ccc(-c3cc4nccc(Oc5ccc(NC(=O)NC6CC6)cc5F)c4s3)nc2)CC1 [Compound 412]
14,< 50 nM,CN(C(=O)CO)C1CCN(Cc2ccc(-c3cc4nccc(Oc5ccc(NC(=O)NC6CC6)cc5F)c4s3)nc2)CC1 [Compound 413]
15,< 50 nM,O=C(CO)NC1CN(Cc2ccc(-c3cc4nccc(Oc5ccc(NC(=O)NC6CC6)cc5F)c4s3)nc2)C1 [Compound 414]
16,< 50 nM,COCCN(C)C1CCN(Cc2ccc(-c3cc4nccc(Oc5ccc(NC(=O)NC6CC6)cc5F)c4s3)nc2)CC1 [Compound 416]
17,< 50 nM,CN(CCO)C1CCN(Cc2ccc(-c3cc4nccc(Oc5ccc(NC(=O)NC6CC6)cc5F)c4s3)nc2)CC1 [Compound 417]
18,< 50 nM,COCCOCCOCCOCCN(C)C1CCN(Cc2ccc(-c3cc4nccc(Oc5ccc(NC(=O)NC6CC6)cc5F)c4s3)nc2)CC1 [Compound 418]
19,< 50 nM,"O=C(Nc1ccc(Oc2ccnc3cc(-c4ccc(CN5CCN(CCF)CC5)cn4)sc23)c(F)c1)NC1CC1 [Compound 420, 1-Cyclopropyl-3-(3-fluoro-4-(2-(5-((4-(2-fluoroethyl)piperazin-1-yl)methyl)pyridin-2-yl)thieno[3,2-b]pyridin-7-yloxy)phenyl)urea]"
20,< 50 nM,"CN(CCF)C1CCN(Cc2ccc(-c3cc4nccc(Oc5ccc(NC(=O)NC6CC6)cc5F)c4s3)nc2)CC1 [Compound 421, 1-Cyclopropyl-3-(3-fluoro-4-(2-(5-((4-((2-fluoroethyl)(methyl)amino)piperidin-1-yl)methyl)pyridin-2-yl)thieno[3,2-b]pyridin-7-yloxy)phenyl)urea]"
21,< 50 nM,"CCOC(=O)CN(C)C1CCN(Cc2ccc(-c3cc4nccc(Oc5ccc(NC(=O)NC6CC6)cc5F)c4s3)nc2)CC1 [Compound 422, Ethyl 2-((1-((6-(7-(4-(3-cyclopropylureido)-2-fluorophenoxy)thieno[3,2-b]pyridin-2-yl)pyridin-3-yl)methyl)piperidin-4-yl)(methyl)amino)acetate]"
22,< 50 nM,"CN(CC(=O)O)C1CCN(Cc2ccc(-c3cc4nccc(Oc5ccc(NC(=O)NC6CC6)cc5F)c4s3)nc2)CC1 [Compound 423, 2-((1-((6-(7-(4-(3-Cyclopropylureido)-2-fluorophenoxy)thieno[3,2-b]pyridin-2-yl)pyridin-3-yl)methyl)piperidin-4-yl)(methyl)amino)acetic acid]"
23,< 50 nM,"CN(CCC(=O)O)C1CCN(Cc2ccc(-c3cc4nccc(Oc5ccc(NC(=O)NC6CC6)cc5F)c4s3)nc2)CC1 [Compound 424, 3-((1-((6-(7-(4-(3-Cyclopropylureido)-2-fluorophenoxy)thieno[3,2-b]pyridin-2-yl)pyridin-3-yl)methyl)piperidin-4-yl)(methyl)amino)propanoic acid]"
24,< 50 nM,"O=C(O)CNC(=O)NC1CCN(Cc2ccc(-c3cc4nccc(Oc5ccc(NC(=O)NC6CC6)cc5F)c4s3)nc2)CC1 [Compound 426, 2-(3-(1-((6-(7-(4-(3-Cyclopropylureido)-2-fluorophenoxy)thieno[3,2-b]pyridin-2-yl)pyridin-3-yl)methyl)piperidin-4-yl)ureido)acetic acid]"
25,< 50 nM,CN(C(=O)NCC(=O)O)C1CCN(Cc2ccc(-c3cc4nccc(Oc5ccc(NC(=O)NC6CC6)cc5F)c4s3)nc2)CC1 [Compound 427]
26,< 50 nM,O=C(O)CNC(=O)NC1CN(Cc2ccc(-c3cc4nccc(Oc5ccc(NC(=O)NC6CC6)cc5F)c4s3)nc2)C1 [Compound 428]
27,≥ 250 nM,O=C(O)CCNC(=O)NC1CCN(Cc2ccc(-c3cc4nccc(Oc5ccc(NC(=O)NC6CC6)cc5F)c4s3)nc2)CC1 [Compound 429]
28,< 50 nM,"CCNC(=O)N1CC(N(CC(=O)O)Cc2ccc(-c3cc4nccc(Oc5ccc(NC(=O)NC6CC6)cc5F)c4s3)nc2)C1 [Compound 434, 2-(((6-(7-(4-(3-Cyclopropylureido)-2-fluorophenoxy)thieno[3,2-b]pyridin-2-yl)pyridin-3-yl)methyl)(1-(ethylcarbamoyl)azetidin-3-yl)-amino)acetic acid]"
